Assay results from article PMC10011573, “Development of novel broad-spectrum antimicrobial lipopeptides derived from plantaricin NC8 β” (Scientific Reports, 2023).
Residues, ends and D or L forms follow the SMILES beside them. *: point of attachment. Heptanoyl = CCCCCCC(=O)*; Hexanoyl = CCCCCC(=O)*

Columns and labels:
E. coli (K-12 MG1655) [1] = type: cell-based; conditions: Table 6; K-12 MG1655; checkerboard assay, 50:50 PBS/LB-broth, 200 µL
S. aureus (ATCC 29213) = type: cell-based; conditions: Table 6; ATCC 29213; checkerboard assay, 50:50 PBS/LB-broth, 200 µL
Description: The broth microdilution method was used to determine minimal inhibitory concentration (MIC) and minimal bactericidal concentration (MBC), in accordance with the EUCAST standards for the broth microdilution method. […] In brief, two-fold serial dilutions of the lipopeptides were performed in a 96-well plate in PBS, with a final volume of 100 µl per well, after which 100 µl of LB-broth media containing approximately 5 × 10^5 CFU/ml of bacteria was added to each well. The plate was then incubated for 20 h in 37 °C on a shaker (400 rpm). The effect of lipopeptide-antibiotic combinations was investigated by performing checkerboard assays. The assays were performed in accordance with the MIC and MBC tests conducted above, but with horizontal and longitudinal two-fold serial dilutions of the tested compounds. […] The fractional inhibitory concentration (FIC) and fractional bactericidal concentration (FBC) were calculated by the equation (MIC or MBC of peptide in combination/MIC or MBC of peptide alone) + (MIC or MBC of antibiotic in combination/MIC or MBC of antibiotic alone). […] All experiments were repeated at least three times.

[2] = Carboxyfluorescein release assay, bacterial liposome model; type: biochemical; conditions: 75:25 POPC:POPG liposomes, 25 µM lipid, 10 mM PBS pH 7.4, 10^–5–10^2 µM peptide, 60 min, fluorescence, Hill fit, n = 3; read-out: EC50 Bacterial (concentration that triggers 50% CF release)
Description: (§1) Liposomes were prepared by thin-film hydration method. Lipids stock solutions (10 mg/ml in chloroform, Avanti Polar Lipids, Inc., Alabaster, United States) of the lipids 1-palmitoyl-2-oleoyl-sn-glycero-3-phosphocholine (POPC), 1-palmitoyl-2-oleoyl-sn-glycero-3-phospho-L-serine (POPS), 1-Hexadecanoyl-2-(9Z-Octadecenoyl)-sn-Glycero-3-Phosphoglycerol (POPG) and Cholesterol (Chol) were employed. Bacterial liposomes were prepared with a 75:25 ratio of POPC:POPG and mammalian liposomes were prepared with a 65:5:30 ratio of POPC:POPS:Chol. Lipid solutions were thoroughly homogenised, and the solvent was evaporated with the use of a dry N2 steam to yield a lipid cake. […] The lipid film was subsequently hydrated with a 5(6)-CF solution (50 mM CF, 10 mM PBS, 90 mM NaCl, pH 7.4). Following a 10 min incubation on orbital shaker (50 min^−1), the solution was vortexed for 60 s on medium speed. A mini extruder (Avanti Polar Lipids, Inc., United States) was employed and 21 extrusions were performed through a 0.1 µm filter membrane (Nuclepore track-etched hydrophilic membrane, Cytiva, Whatman, MA, United States), resulting in monodispersed unilamellar liposomes. Directly before use the liposomes were purified from unencapsulated CF by filtration through a gel filtration column (PD Minitrap G-25 column, Cytiva, United States), against PBS buffer (10 mM, pH 7.4).
(§2) Peptide and lipopeptide activity towards liposome models were evaluated using a carboxyfluorescein (CF) release assay. Liposomes were diluted in PBS (10 mM, pH 7.4) to a final lipid concentration of 25 µM and incubated with peptides (10^–5–10^2 µM) in a 96-well plate (n = 3). CF release was monitored using an Infinite M1000 PRO plate reader every 2.5 min for 1 h. Full (100%) CF release was obtained by addition of 1% Triton X-100 solution followed by 10 min incubation. CF release percentage was evaluated according to the formula 100 * (F − F0)/(FT − F0), where F indicates the instantaneous fluorescence, FT the total fluorescence and F0 the background fluorescence prior to peptide addition. Data were fitted to a Hill-1 curve using MATLAB R2019a (The MathWorks Inc., Natick, Massachusetts, United States) and the half maximum effective concentration (EC50) was extracted.

human erythrocytes = experiment: Hemolytic activity; type: cell-based; conditions: 15% suspension in PBS, 1 h, 37 °C, absorbance 540 nm, highest tested concentration 100 µM
Description: The hemolytic activity of the lipopeptides was investigated by collecting blood from healthy volunteers in heparinized vacutainers. Briefly, the blood was centrifuged at 600 × g for 5 min and the erythrocyte pellet was washed three times in PBS. The cells were then suspended in PBS and added to 96-well plates (15% erythrocyte suspension/well), containing the lipopeptides with two-fold serial dilution. The plates were incubated for 1 h at 37 °C followed by centrifugation for 5 min at 900×g and absorbance measurement of the supernatants at 540 nm. Hemolytic activity (%) was calculated by subtracting the negative control from all values and normalization against the positive control (0.5% Triton X-100), that was set to 100%. All experiments, each in duplicate, were repeated three times.

[3] = test system: S. aureus (ATCC 29213, MSSA); conditions: ATCC 29213, 20 h
Description: (§3) S. aureus (ATCC 29213, MSSA, ATCC, Manassas, VA), E. coli (K-12 MG1655) and clinical isolates of S. aureus, E. coli, E. faecium, K. pneumoniae, A. baumannii, P. aeruginosa and E. cloacae obtained from the Department of Laboratory Medicine at Örebro University Hospital were streaked on Luria–Bertani (LB) agar plates and incubated at 37 °C overnight. Single colonies were inoculated into 5 ml of LB broth and incubated on a shaker (400 rpm) at 37 °C overnight. The bacterial concentrations were determined by viable count and were adjusted to correlate with approximately 10^9 CFU/ml.
(§4) The broth microdilution method was used to determine minimal inhibitory concentration (MIC) and minimal bactericidal concentration (MBC), in accordance with the EUCAST standards for the broth microdilution method. Two-fold serial dilutions of the lipopeptides were used, and the final concentrations ranged from 0.19 to 100 µM. In brief, two-fold serial dilutions of the lipopeptides were performed in a 96-well plate in PBS, with a final volume of 100 µl per well, after which 100 µl of LB-broth media containing approximately 5 × 10^5 CFU/ml of bacteria was added to each well. The plate was then incubated for 20 h in 37 °C on a shaker (400 rpm). The effect of lipopeptide-antibiotic combinations was investigated by performing checkerboard assays. The assays were performed in accordance with the MIC and MBC tests conducted above, but with horizontal and longitudinal two-fold serial dilutions of the tested compounds. […] The fractional inhibitory concentration (FIC) and fractional bactericidal concentration (FBC) were calculated by the equation (MIC or MBC of peptide in combination/MIC or MBC of peptide alone) + (MIC or MBC of antibiotic in combination/MIC or MBC of antibiotic alone). Synergy was defined as FIC/FBC ≤ 0.5, additive when 0.5 < FIC/FBC ≤ 1, indifferent when 1 < FIC/FBC < 2 and antagonistic when FIC/FBC ≥ 2. All experiments were repeated at least three times.

E. coli (K-12 MG1655) [4] = conditions: Table 3; K-12 MG1655; broth microdilution, 50:50 PBS/LB-broth, 200 µL, 20 h, 37 °C
Description: as §3, §4

[5] = Carboxyfluorescein release assay, mammalian liposome model; type: biochemical; conditions: 65:5:30 POPC:POPS:Chol. liposomes, 25 µM lipid, 10 mM PBS pH 7.4, 10^–5–10^2 µM peptide, 60 min, fluorescence, Hill fit, n = 3; read-out: EC50 Mammalial (concentration that triggers 50% CF release)
Description: as §1, §2

Structure (SMILES) | E. coli MBC, antibiotic alone (E. coli (K-12 MG1655) [1]) [µg/mL] | E. coli MIC, antibiotic alone (E. coli (K-12 MG1655) [1]) [µg/mL] | S. aureus MBC, antibiotic alone (S. aureus (ATCC 29213)) [µg/mL] | S. aureus MIC, antibiotic alone (S. aureus (ATCC 29213)) [µg/mL] | EC50 [2] [nM] | HC, hemolytic concentration at 5% hemolytic activity (human erythrocytes) [µM] | S. aureus MBC [3] [µM] | S. aureus MIC [3] [µM] | E. coli MBC (E. coli (K-12 MG1655) [4]) [µM] | E. coli MIC (E. coli (K-12 MG1655) [4]) [µM] | EC50 [5] [nM]
CO/N=C(\C(=O)N[C@@H]1C(=O)N2C(C(=O)O)=C(COC(C)=O)CS[C@H]12)c1csc(N)n1 [Cefotaxim] | 0.5 | 0.5 | – | – | – | – | – | – | – | – | –
O=C(O)c1cn(C2CC2)c2cc(N3CCNCC3)c(F)cc2c1=O [Ciprofloxacin] | 0.125 | 0.125 | 0.25 | 0.25 | – | – | – | – | – | – | –
CNC(C)C1CCC(N)C(OC2C(N)CC(N)C(OC3OCC(C)(O)C(NC)C3O)C2O)O1 (centres unmarked) [Gentamicin] | 1 | 1 | – | – | – | – | – | – | – | – | –
CCCCCC(=O)N[C@@H](CC(C)C)C(=O)NCC(=O)N[C@@H](CC(C)C)C(=O)N[C@@H](CCCCN)C(=O)N[C@@H](CC(C)C)C(=O)N[C@@H](CC(C)C)C(=O)N[C@@H](Cc1c[nH]c2ccccc12)C(=O)N[C@@H](CO)C(=O)N[C@@H](C)C(=O)N[C@@H](Cc1ccc(O)cc1)C(=O)N[C@@H](CCCCN)C(=O)N[C@@H](Cc1c[nH]cn1)C(=O)N[C@@H](CCCNC(=N)N)C(=O)N[C@@H](CCCCN)C(=O)N[C@H](C(=O)N[C@@H](CC(C)C)C(N)=O)[C@@H](C)O [L-6-C6-Leu] (Hexanoyl-LGLKLLWSAYKHRKTL-NH2) | – | – | – | – | 130 | 60 | 3.1 | 1.5 | 6.2 | 6.2 | 1210
CCCCCC(=O)N[C@@H](CC(C)C)C(=O)NCC(=O)N[C@H](C(=O)N[C@@H](CCCCN)C(=O)N[C@H](C(=O)N[C@@H](CC(C)C)C(=O)N[C@@H](Cc1c[nH]c2ccccc12)C(=O)N[C@@H](CO)C(=O)N[C@@H](C)C(=O)N[C@@H](Cc1ccc(O)cc1)C(=O)N[C@@H](CCCCN)C(=O)N[C@@H](Cc1c[nH]cn1)C(=O)N[C@@H](CCCNC(=N)N)C(=O)N[C@@H](CCCCN)C(=O)N[C@H](C(=O)N[C@H](C(N)=O)[C@@H](C)CC)[C@@H](C)O)[C@@H](C)CC)[C@@H](C)CC [L-6-C6] (Hexanoyl-LGIKILWSAYKHRKTI-NH2) | – | – | – | – | 160 | > 100 | 6.2 | 3.1 | 6.2 | 6.2 | 3570
CCCCCCC(=O)N[C@@H](CC(C)C)C(=O)NCC(=O)N[C@@H](CC(C)C)C(=O)N[C@@H](CCCCN)C(=O)N[C@@H](CC(C)C)C(=O)N[C@@H](CC(C)C)C(=O)N[C@@H](Cc1c[nH]c2ccccc12)C(=O)N[C@@H](CO)C(=O)N[C@@H](C)C(=O)N[C@@H](Cc1ccc(O)cc1)C(=O)N[C@@H](CCCCN)C(=O)N[C@@H](Cc1c[nH]cn1)C(=O)N[C@@H](CCCNC(=N)N)C(=O)N[C@@H](CCCCN)C(=O)N[C@H](C(=O)N[C@@H](CC(C)C)C(N)=O)[C@@H](C)O [L-6-C7-Leu] (Heptanoyl-LGLKLLWSAYKHRKTL-NH2) | – | – | – | – | 120 | 30 | 1.5 | 1.5 | 6.2 | 6.2 | 1100
CO[C@H]1/C=C/O[C@@]2(C)Oc3c(C)c(O)c4c(O)c(c(/C=N/N5CCN(C)CC5)c(O)c4c3C2=O)NC(=O)/C(C)=C\C=C\[C@H](C)[C@H](O)[C@@H](C)[C@@H](O)[C@@H](C)[C@H](OC(C)=O)[C@@H]1C [Rifampicin] | 100 | – | 0.062 | 0.062 | – | – | – | – | – | – | –
